Results from patent US9616037B2, “Aryl-phenyl-sulfonamido-cycloalkyl compounds and their use” (PIMCO 2664 Limited, priority 2008, dated 2017).
≈ marks a conversion by molar mass, not a printed value.

What was measured:
[1] = Thermodynamic aqueous solubility in fasted state simulated intestinal fluid (FaSSIF); format: physicochemical; conditions: pH 6.5, thermodynamic from solid, equilibrated at 25° C. for 24 hours, HPLC
Procedure: (§1) Initial screening of candidate compounds was performed using in vitro assays to determine potency, metabolic stability and solubility in biologically relevant fluids. Potency was assessed using a viability assay based on the survival of the J774 macrophage cell line. […] Like osteoclasts, J774 macrophages are dependent on continued NFκB activation for survival, thereby providing a valuable screen for compounds with anti-inflammatory activity. Metabolic stability was measured by determining the rate of disappearance of compound in the presence of human liver microsomal preparations, as quantified by LC-MS/MS. Solubility was measured by equilibration of the compound in fasted state simulated intestinal fluid (FaSSIF) and quantified by HPLC.
Thermodynamic aqueous solubility was measured by equilibration of a number of APSAC compounds, in the solid state, with fasted state simulated intestinal fluid (FaSSIF) and quantified by HPLC. Measurement of solubility in FaSSIF provides a valuable model for the prediction of drug dissolution following oral administration.
The pH was adjusted to 6.5 using 1 M NaOH solution.
0.6 mL of a solution containing 100 mg/mL lecithin in methylene chloride was added. The methylene chloride was eliminated under vacuum at about 40° C. The vacuum was drawn for 15 minutes at 250 mbar, followed by 15 minutes at 100 mbar. […] After cooling to room temperature, the solution was then adjusted to 100 mL with blank FaSSIF.
The suspension was equilibrated at 25° C. for 24 hours, and then the pH was measured. The suspension was then filtered through a glass fibre C filter into a 96-well plate. The filtrate was then diluted by a factor of 100. Quantification was made by HPLC with reference to a standard solution of compound at approximately 0.1 mg/mL in DMSO. Different volumes of the standard, diluted and undiluted sample solutions were injected. […] Analysis was performed on an Agilent HP1100 series system equipped with a diode array detector and using ChemStation software vB.02.01-SR1.

J774 macrophages = test: Alamar Blue macrophage J774 viability assay; format: cell-based; conditions: Mus musculus; J774 cells, 72 hours with compound, Alamar Blue readout; read-out: IC50
Procedure: Initial screening of candidate compounds was performed using in vitro assays to determine potency, metabolic stability and solubility in biologically relevant fluids. Potency was assessed using a viability assay based on the survival of the J774 macrophage cell line. Macrophages are closely related to osteoclasts and have been used previously as a model system for osteoclast survival (see, e.g., Luckman et al., 1998). Like osteoclasts, J774 macrophages are dependent on continued NFκB activation for survival, thereby providing a valuable screen for compounds with anti-inflammatory activity. Metabolic stability was measured by determining the rate of disappearance of compound in the presence of human liver microsomal preparations, as quantified by LC-MS/MS. Solubility was measured by equilibration of the compound in fasted state simulated intestinal fluid (FaSSIF) and quantified by HPLC.
In vitro potency as anti-inflammatory agents was determined for a number of APSAC compounds by incubation with J774 macrophages and subsequent determination of cell viability.
J774 cells were plated at 10^4 cells per well in 100 μL αMEM (α Modified Eagle Medium) in 96-well plates and grown overnight. The next day, test compounds were added to the cultures, and cultures were continued for another 72 hours. At the end of the culture period, cell survival was determined using an Alamar Blue assay as previously described (see, e.g., Nociari et al., 1998).
Alamar Blue is an oxidation-reduction sensitive indicator. The dye itself is in the oxidised state, which is blue and non-fluorescent. The dye can accept electrons from reducing species, such as NADPH and FADH, to form a reduced dye species, which is red and fluorescent. Thus the transformation from oxidised form to reduced form can be measured by fluorimetric or colourimetric means. For fluorescence measurements, 530-560 nm excitation and 590 nm emission wavelengths are typically used. For colourimetric measurements, absorbance at 570 nm (reduced form) and 600 nm (oxidised form) is typically measured. A simple calculation is performed to determine the relative quantities of the two species.
A high ratio of the reducing species, NADPH and FADH, to the corresponding oxidised species, NADP and FAD, is an indicator that cells are proliferating and viable. A low ratio indicates cells that are quiescent or non-viable.
Briefly, Alamar Blue (Biosource International) was added undiluted to the each well (1:10 v/v, 10 μL). The plate was incubated at 37° C. for 3-4 hours and the fluorescence was measured at 590 nm, with a 25 nm bandwidth. A high reading indicated cells with normal viability, and a low reading indicated cells that have been damaged and are no longer proliferating normally. The controls gave a high fluorescence reading, indicating a high number of live, healthy cells. A potent test compound gave a low fluorescence reading. The average results for each test compound (n=5) were expressed as a percent (%) of the average control value.
Addition of Compounds. All of the compounds studied were made up as 100 mM solutions in DMSO. These stock solutions were then diluted 1000-10000× in culture medium (αMEM). From these 100 μM or 10 μM solutions, convenient quantities (3-33 μL) were added directly to the wells so as to give the desired final compound concentration.

[2] = Human liver microsomal stability assay; format: in vitro ADME; conditions: pooled human liver microsomes 0.5 mg/mL, 3 μM compound, NADPH, 45 minute incubation; for half-life at 3 µM: both sexes, pH 7.4
Procedure: as §1
Metabolic stability of APSAC derivatives was measured by determination of the rate of compound disappearance when incubated in the presence of human liver microsomes. Liver microsomes are prepared from the endoplasmic reticulum of hepatocytes and are the primary source of the most important enzymes (cytochrome P450) involved in drug metabolism. Study of drug stability in the presence of liver microsomes is accepted as a valuable model permitting rapid prediction of in vivo drug stability.
Human liver microsomes were obtained from a commercial source. Test compounds (3 μM) were incubated with pooled liver microsomes (male and female). Samples were incubated for a 45 minute period and removed at 5 time points and test compounds were analysed by LC-MS/MS.
The final incubation volume was 25 μL. A control incubation was included for each compound tested, where 0.1 M phosphate buffer pH 7.4 was added instead of NADPH. The control compounds testosterone and 7-hydroxycoumarin were included in each experiment and all incubations were performed singularly for each compound.
Each compound was incubated for 0, 5, 15, 30, and 45 minutes. The control (minus NADPH) was incubated for 45 minutes only. […] The incubation plates were centrifuged at 2500 rpm for 20 minutes at 4° C. to precipitate the protein.
Following protein precipitation, the sample supernatants were combined in cassettes of up to 4 compounds and analysed using standard LC-MS/MS conditions.
From a plot of the natural logarithm of the peak area ratio (i.e., the ratio of compound peak area:internal standard peak area) against time, the gradient of the line was determined. Subsequently, half-life and intrinsic clearance were calculated using the equations below: Eliminated rate constant (k)=(−gradient). […] Pharmacokinetics Studies

caspase 3 = test: Caspase induction study (Nucview488 fluorogenic substrate) in the presence of TNFα; format: cell-based; conditions: human monocytes, 10 μM test compound, 10 ng/mL TNFα, Nucview488 stain
Procedure: The ability to activate caspase 3 was studied using a fluorogenic enzyme substrate assay.
Briefly, human primary monocytes were isolated from whole blood using Ficoll gradients. The resulting cells were plated into microwell plates for 24 hours after which non-adherent cells were removed by washing. Cells were differentiated in the presence of 100 ng/mL MCSF. Cells were pre-treated with 10 μM test compound for 1 hour prior to stimulation with 10 ng/mL TNFα. Caspase 3 activation as an indicator of apoptosis was detected using the Nucview488 stain, which was added one hour prior to visualisation. The Nucview488 stain indicates the activation of caspase 3 (CPP32, apopain, YAMA), a cysteine peptidase which plays a key role in the induction of apoptosis in individual whole mammalian cells. Essentially, Nucview488 consists of a fluorogenic DNA dye and a DEVD substrate moiety specific for caspase 3. In itself, Nucview488 is nonfluorescent. However, upon entering the cell cytoplasm, Nucview488 is cleaved by caspase 3 to form a high-affinity DNA dye. The released DNA dye migrates to the cell nucleus to stain the nucleus bright green. This fluorescent staining produced in response to caspase 3 activity is monitored using fluorescent light microscopy.

With `O=S(=O)(N[C@@H]1CCC[C@@H]1CO)c1ccc(-c2ccc(F)cc2F)cc1` (relative stereo) [ABD769, 2′,4′-Difluoro-N-(cis-2-(hydroxymethyl)cyclopentyl)biphenyl-4-sulfonamide] the solubility at 24 h [1] was 70 µg/mL (≈ 191 µM), the IC50 (J774 macrophages) was 4590 nM and the half-life at 3 µM [2] was 42 min.

With `O=S(=O)(N[C@H]1CC[C@H](O)CC1)c1ccc(-c2ccc(F)cc2F)cc1` [ABD599, 2′,4′-Difluoro-N-(trans-4-hydroxycyclohexyl)biphenyl-4-sulfonamide] the solubility at 24 h [1] was 30 µg/mL (≈ 81.7 µM), the “caspase 3 activation (fluorescence detected by light microscopy)” value (caspase 3) was “significant activation of caspase 3” and the IC50 (J774 macrophages) was 70 nM. It also gave a half-life at 3 µM [2] of 287 min.

In the case of `O=S(=O)(N[C@H]1CC[C@H](O)CC1)c1ccc(-c2ccc(Cl)cc2F)cc1` [ABD655, 4′-Chloro,2′-fluoro-N-(trans-4-hydroxycyclohexyl)biphenyl-4-sulfonamide], the solubility at 24 h [1] is reported as 30 µg/mL (≈ 78.2 µM), the IC50 (J774 macrophages) is reported as 180 nM and the half-life at 3 µM [2] is reported as 228 min.

Compound `O=S(=O)(NC1CCC(CO)CC1)c1ccc(-c2ccc(F)cc2F)cc1` (stereo not drawn) [ABD776, 2′,4′-Difluoro-N-(4-(trans-hydroxymethyl)cyclohexyl)biphenyl-4-sulfonamide] has a solubility at 24 h [1] of 82 µg/mL (≈ 215 µM), an IC50 (J774 macrophages) of 800 nM and a half-life at 3 µM [2] of 137 min.

With `O=S(=O)(N[C@H]1CC[C@@H](O)CC1)c1ccc(-c2ccc(F)cc2F)cc1` [ABD777, 2′,4′-Difluoro-N-(cis-4-hydroxycyclohexyl)biphenyl-4-sulfonamide] the solubility at 24 h [1] was 60 µg/mL (≈ 163 µM), the IC50 (J774 macrophages) was 1900 nM and the half-life at 3 µM [2] was 69 min.

Work on `O=C1CCC(NS(=O)(=O)c2ccc(-c3ccc(F)cc3F)cc2)CC1` [ABD786, 2′,4′-Difluoro-N-(4-oxocyclohexyl)biphenyl-4-sulfonamide] yielded a solubility at 24 h [1] of 32 µg/mL (≈ 87.6 µM), an IC50 (J774 macrophages) of 280 nM and a half-life at 3 µM [2] of 12 min.

In the case of `NC1CCC(NS(=O)(=O)c2ccc(-c3ccc(F)cc3F)cc2)CC1` (stereo not shown) [ABD787], the solubility at 24 h [1] is reported as 140 µg/mL (≈ 382 µM), the IC50 (J774 macrophages) is reported as 3550 nM and the T1/2 [2] is reported as “Stable”.

With `CC(C)(O)[C@H]1CC[C@H](NS(=O)(=O)c2ccc(-c3ccc(F)cc3F)cc2)CC1` [ABD794, 2′,4′-Difluoro-N-(trans-4-(2-hydroxypropan-2-yl)cyclohexyl)biphenyl-4-sulfonamide] the solubility at 24 h [1] was 12 µg/mL (≈ 29.3 µM), the IC50 (J774 macrophages) was 2100 nM and the T1/2 [2] was “Stable”.

Compound `CC(C)(O)[C@H]1CC[C@@H](NS(=O)(=O)c2ccc(-c3ccc(F)cc3F)cc2)CC1` [ABD795, 2′,4′-Difluoro-N-(cis-4-(2-hydroxypropan-2-yl)cyclohexyl)biphenyl-4-sulfonamide] has a solubility at 24 h [1] of 50 µg/mL (≈ 122 µM), an IC50 (J774 macrophages) of 2700 nM and a half-life at 3 µM [2] of 15 min.

For `CC(C)(O)[C@@H]1CC[C@H](NS(=O)(=O)c2ccc(-c3ccc(F)cc3F)cc2)C1` [ABD796, 2′,4′-Difluoro-N-((1S,3R)-3-(2-hydroxypropan-2-yl)cyclopentyl)biphenyl-4-sulfonamide], the solubility at 24 h [1] was 200 µg/mL (≈ 506 µM), the IC50 (J774 macrophages) was under 300 nM and the half-life at 3 µM [2] was 54 min.

In the case of `CN(C)[C@H]1CC[C@@H](NS(=O)(=O)c2ccc(-c3ccc(F)cc3F)cc2)CC1` [ABD798, N-(cis-4-(Dimethylamino)cyclohexyl)-2′,4′-difluorobiphenyl-4-sulfonamide], the solubility at 24 h [1] is reported as 4700 µg/mL (≈ 11900 µM), the IC50 (J774 macrophages) is reported as 600 nM and the T1/2 [2] is reported as “Stable”.

With `CN(C)[C@H]1CC[C@H](NS(=O)(=O)c2ccc(-c3ccc(F)cc3F)cc2)CC1` [ABD799, N-(trans-4-(Dimethylamino)cyclohexyl)-2′,4′-difluorobiphenyl-4-sulfonamide] the solubility at 24 h [1] was 7200 µg/mL (≈ 18300 µM), the IC50 (J774 macrophages) was 400 nM and the T1/2 [2] was “Stable”.

Work on `N[C@H]1CC[C@@H](NS(=O)(=O)c2ccc(-c3ccc(F)cc3F)cc2)CC1` [ABD812, N-(cis-4-Aminocyclohexyl)-2′,4′-difluorobiphenyl-4-sulfonamide] yielded a solubility at 24 h [1] of 980 µg/mL (≈ 2670 µM), an IC50 (J774 macrophages) of 7600 nM and a half-life at 3 µM [2] of 585 min.

For `O=S(=O)(N[C@H]1CC[C@H](CO)C1)c1ccc(-c2ccc(F)cc2F)cc1` [ABD813, 2′,4′-Difluoro-N-((1S,3S)-3-(hydroxymethyl)cyclopentyl)biphenyl-4-sulfonamide], the solubility at 24 h [1] was 330 µg/mL (≈ 898 µM), the IC50 (J774 macrophages) was 570 nM and the half-life at 3 µM [2] was 45.4 min.

For `CC(C)(O)[C@H]1CC[C@H](NS(=O)(=O)c2ccc(-c3ccc(F)cc3F)cc2)C1` [ABD815, 2′,4′-Difluoro-N-((1S,3S)-3-(2-hydroxypropan-2yl)cyclopentyl) biphenyl-4-sulfonamide], the solubility at 24 h [1] was 250 µg/mL (≈ 632 µM), the IC50 (J774 macrophages) was under 300 nM and the half-life at 3 µM [2] was 13.2 min.
